Assay results as given in publication PMC10652874, “Investigation into the mechanism of action of the antimicrobial peptide epilancin 15X” (Frontiers in Microbiology, 2023).

Legend:
[1] = system: RNA biosynthesis in S. carnosus TM300; assay: Macromolecular synthesis assay: 3H-uridine incorporation into RNA; format: cell-based, Staphylococcus carnosus; conditions: S. carnosus TM300, 2× MIC, three independent experiments
Description: (§1) Radiolabel incorporation experiments were carried out similarly as previously described but using S. carnosus ([Wu et al., 2019]). The OD600 of parallel nonradioactive cultures was measured at each time point to normalize the measured radioactivity and minimize effects due to cell death and growth inhibition. The radiolabeled reagents and their corresponding positive and negative antibiotic controls were as follows. […] All experiments were conducted independently three times.
(§2) Figure S3. Thre e in de pen den t ex perime nts of incorporation of (A) 14C- acetic acid into fatty acids, (B) 14C- thymi din e into D NA, (C) 3H-uridi ne into RNA, (D) 14C- lab el ed ami no acids into protei n, and (E) 14C- label ed GlcNAc into cell w all in S. carnosus TM300 cells treated with vario u s antimicro bia l agents. T he p ercent i nco rpo ratio n at 0 min was measured after incubati ng the cel l cultur e with 0.8 μCi/mL radioactive precursors for 15 min. Then 0.5x, 1x, 2x, or 4x MIC epilanci n 15X and 2x MIC controls were added to the cell cultur e (t=0), and t he percent incorporation was measur ed ov er time. Positive controls a re gr een and negative controls are black (cells o nly) an d blu e (co mpo und w ith mo d e o f actio n unr elate d to th e a ssay i n que stio n). […]

[2] = system: protein biosynthesis in S. carnosus TM300; assay: Macromolecular synthesis assay: 14C-L-amino acids incorporation into protein; format: cell-based, Staphylococcus carnosus; conditions: S. carnosus TM300, 2× MIC, three independent experiments
Description: as §1, §2

[3] = system: cell wall biosynthesis in S. carnosus TM300; assay: Macromolecular synthesis assay: 14C-N-acetyl-D-glucosamine incorporation into cell wall; format: cell-based, Staphylococcus carnosus; conditions: S. carnosus TM300, three independent experiments
Description: as §1, §2

[4] = system: LiaRS response in B. subtilis BSF2470; assay: LiaRS disk diffusion reporter assay (β-galactosidase, X-Gal); format: cell-based, Bacillus subtilis; conditions: 37°C overnight
Description: The LiaRS response was determined via disk diffusion as described previously ([Mascher et al., 2004]). Briefly, B. subtilis strain BSF2470 was grown in LB supplemented with erythromycin (1 μg/mL) overnight at 37°C with shaking. A total of 20 μL of overnight culture was mixed with 100 μL of 20 mg/mL X-Gal (dissolved in DMF) and 5 mL of 0.7% soft LB agar then poured onto a 1.5% LB agar base. The plates were allowed to cool and dry at room temperature for 20 min. The desired molecule was either spotted on a filter paper disk and placed on top of the agar or directly spotted on the agar. The following molecules were tested: ampicillin, 0.5 μL on filter disk, 1 μL directly spotted, 100 mg/mL; compound 1771/LtaS-IN-1, 4 μL, 20 mM (dissolved in DMSO); epilancin 15X, 4 μL, 5 mM; vancomycin, 1 μL, 100 mg/mL; nisin, 4 μL, 2 mM; bacitracin, 4 μL on filter disk, 5 μL directly spotted, 100 mg/mL; water, 5 μL; magainin 2, 10 μL, 1 mM; melittin, 10 μL, 1 mM. The plate was incubated at 37°C overnight. After overnight incubation, the plate was imaged. Compound 1771 (CS-0114233) was purchased from ChemScene LLC.
To investigate the effect of epilancin 15X on the cell envelope, we employed the two-component LiaRS reporter system in B. subtilis (lipid II cycle interfering antibiotic response regulator and sensor; [Mascher et al., 2004]). Briefly, the LiaRS assay is a disk diffusion assay used to screen for the ability of compounds to induce β-galactosidase expression in engineered B. subtilis BSF2470 ([Mascher et al., 2004]). Molecules that produce a blue ring around the edge of the zone of growth inhibition are believed to interfere with the lipid II cycle ([Hachmann et al., 2009]). […] The compound 1771, also called LtaS-IN-1, inhibits lipoteichoic acid (LTA) synthesis ([Richter et al., 2013]) and to the best of our knowledge has not been tested in the LiaRS assay.

S. carnosus TM300 = assay: Agar diffusion bioactivity assay with lipids in flanking wells; format: cell-based, Staphylococcus carnosus; conditions: S. carnosus TM300 on BHI agar, overnight
Description: For agar diffusion antimicrobial activity assays, the autoclaved 1.5% agar was prepared in the appropriate medium and cooled in a 40°C water bath for 15 min. A total of 50 μL overnight culture of the sensitive strain was added to the agar and kept in the water bath. A total of 25 mL seeded agar was poured into a sterile OmniTray (Nunc) and allowed to solidify at room temperature for 30 min. An additional 35 mL of seeded agar was poured over the lower solidified agar layer. A sterile 96-well PCR plate was placed in the molten agar upper layer, and the agar was allowed to solidify at 25°C for 30 min. After sufficient solidification, the 96-well PCR plate was removed. Then 20 μL volume of each peptide was dispensed into the wells. Plates were left at 25°C for 30 min until the wells were dried, and the plates were incubated at 37°C overnight. The antibacterial activity was determined by the presence or absence of growth inhibition.
Figure S5. (A) Zones of growt h inhibition of epilancin 15X a nd nisin A against S. carnosus TM30 0 grown on BHI agar plates. The indicated amounts of antibiotics were placed in the well shown in the center of the zone of inhibition. […]

Bacillus megaterium = conditions: ref Wang et al., 2023; cited from earlier work
Description: (§3) Recent studies have shown that epilancin 15X activity varies depending on the indicator strain, with bacteriostatic activity against Staphylococcus simulans and Micrococcus flavus but bactericidal activity against Bacillus megaterium ([Wang et al., 2023]).

Micrococcus flavus = conditions: ref Wang et al., 2023; cited from earlier work
Description: as §3

Staphylococcus simulans = conditions: ref Wang et al., 2023; cited from earlier work
Description: as §3

## Epilancin 15X
[1]
  RNA biosynthesis (3H-uridine incorporation): considerably stronger effect than that observed with the respective negative controls
[2]
  protein biosynthesis (14C-L-amino acid incorporation): considerably stronger effect than that observed with the respective negative controls
[3]
  cell wall biosynthesis (14C-N-acetyl-D-glucosamine incorporation): no clear change
[4]
  LiaRS response (blue ring at the edge of the zone of inhibition): did not induce a LiaRS response
S. carnosus TM300
  antagonism of bioactivity (zone of growth inhibition) by purified S. aureus LTA: antagonized
Bacillus megaterium
  type of antimicrobial activity: bactericidal
Micrococcus flavus
  type of antimicrobial activity: bacteriostatic
Staphylococcus simulans
  type of antimicrobial activity: bacteriostatic
